This note sets out measurements from patent US20220175761A1, “BI-LIGAND DRUG CONJUGATE AND USE THEREOF” (COHERENT BIOPHARMA (SUZHOU), LIMITED, priority 2019, published 2022).

Assay [1] has as its system MDA-MB-468 (human breast cancer cells). Nature of the assay: Inhibition of cell line proliferation, CCK8. To be noted: MDA-MB-468, 68-72 hours, CCK8. The assay is classed as cell-based. How it is done: (§1) Experimental Operations: LNCaP, SK-BR-3, MDA-MB-468 and CFPAC-1 cells were prepared in advance and counted; with a culture medium (IMDM+10% FBS+1× L-Glutamine+1×P/S), the cells LNCaP, SK-BR-3, MDA-MB-468 and CFPAC-1 were diluted to 4×10^4 cells/ml; the diluted cell solution was plated in 96-well plates at 100 µl/well; and negative control and blank control wells were set on each plate. After adherent cell culture overnight, the diluted samples to be tested were added at 50 μl/well. The plates were placed in an incubator at 37° C., 5% CO2 and cultured for 68-72 hours. To each well, 15 μl (10% of the liquid volume in a well) of a color developing solution from CCK8 was added; and the plates were incubated at 37° C. for 45-70 minutes and each plate was read at 450 nm on a microplate reader. The data was edited using SoftMax Pro and a 4-P fitting curve was plotted.
as §1, with “Operations: LNCaP, MDA-MB-468, CFPAC-1 and PANC-1” for “Operations: LNCaP, SK-BR-3, MDA-MB-468 and CFPAC-1”, “CFPAC-1 and PANC-1 cells were” for “MDA-MB-468 and CFPAC-1 cells were”, “cells LNCaP, MDA-MB-468 and” for “cells LNCaP, SK-BR-3, MDA-MB-468 and”, “to 4×10^4 cells/ml, and PANC-1 was diluted to 3.0×10^4 cells/ml; the” for “to 4×10^4 cells/ml; the”, “at 100 μl/well; and negative” for “at 100 µl/well; and negative”
(§2) Experimental operations: NCI-H226, CFPAC-1 and MDA-MB-468 cells were prepared in advance and counted; MDA-MB-468 and CFPAC-1 cells were plated at a density of 2×10^4 cells/ml (100 μl/well) and NCI-H226 cells were plated at a density of 1×10^4 cells/ml (100 μl/well) in 96-well plates; and negative control and blank control wells were set on each plate. After adherent cell culture overnight, the diluted samples to be tested were added at 50 μl/well. The plates were placed in an incubator at 37° C., 5% CO2 and cultured for 68-72 hours. To each well, 15 μl (10% of the liquid volume in a well) of a color developing solution from CCK8 was added; and the plates were incubated at 37° C. for 45-70 minutes and each plate was read at 450 nm on a microplate reader. The data was edited using SoftMax Pro and a 4-P fitting curve was plotted.

Assay [2] deals with NCI-H226 (human lung cancer cells). As to the kind of experiment: Inhibition of cell line proliferation, CCK8. The assay is classed as cell-based. To be noted: NCI-H226, 68-72 hours, CCK8. How it is done: (§3) Experimental operations: LNCaP, SK-BR-3, NCI-H226, CFPAC-1 and PANC-1 cells were prepared in advance and counted; with a culture medium (IMDM+10% FBS+1× L-Glutamine+1×P/S), the cells LNCaP, SK-BR-3 and CFPAC-1 were diluted to 4×10^4 cells/ml, NCI-H226 was diluted to 2.0×10^4 cells/ml and PANC-1 was diluted to 3.0×10^4 cells/ml; the diluted cell solution was plated in 96-well plates at 100 μl/well; and negative control and blank control wells were set on each plate. After adherent cell culture overnight, the diluted samples to be tested were added at 50 μl/well. The plates were placed in an incubator at 37° C., 5% CO2 and cultured for 68-72 hours. To each well, 15 μl (10% of the liquid volume in a well) of a color developing solution from CCK8 was added; and the plates were incubated at 37° C. for 45-70 minutes and each plate was read at 450 nm on a microplate reader. The data was edited using SoftMax Pro and a 4-P fitting curve was plotted.
as §2

Assay [3] relates to CFPAC-1 (human pancreatic cancer cells). As to the kind of experiment: Inhibition of cell line proliferation, CCK8. The assay is classed as cell-based. To be noted: CFPAC-1, 68-72 hours, CCK8. How it is done: Experimental operations: PANC-1 and CFPAC-1 cells were prepared in advance, counted, and plated in 96-well cell culture plates at a cell density of 4×10^4 cells/ml (100 μl/well); negative control and blank control wells were set on each plate. After adherent cell culture overnight, the diluted samples to be tested were added at 50 μl/well. The plates were placed in an incubator at 37° C., 5% CO2 and cultured for 68-72 hours. To each well, 15 μl (10% of the liquid volume in a well) of a color developing solution from CCK8 was added; and the plates were incubated at 37° C. for 45-70 minutes and each plate was read at 450 nm on a microplate reader. The data was edited using SoftMax Pro and a 4-P fitting curve was plotted.
as §3, §1
as §1, with “Operations: LNCaP, MDA-MB-468, CFPAC-1 and PANC-1” for “Operations: LNCaP, SK-BR-3, MDA-MB-468 and CFPAC-1”, “CFPAC-1 and PANC-1 cells were” for “MDA-MB-468 and CFPAC-1 cells were”, “cells LNCaP, MDA-MB-468 and” for “cells LNCaP, SK-BR-3, MDA-MB-468 and”, “to 4×10^4 cells/ml, and PANC-1 was diluted to 3.0×10^4 cells/ml; the” for “to 4×10^4 cells/ml; the”, “at 100 μl/well; and negative” for “at 100 µl/well; and negative”
Experimental operations: NCI-H226, CFPAC-1 and MDA-MB-468 cells were prepared in advance and counted; MDA-MB-468 and CFPAC-1 cells were plated at a density of 2×10^4 cells/ml (100 μl/well) and NCI-H226 cells were plated at a density of 1×10^4 cells/ml (100 μl/well) in 96-well plates; and negative control and blank control wells were set on each plate. After adherent cell culture overnight, the diluted samples to be tested were added at 50 μl/well. The plates were placed in an incubator at 37° C., 5% CO2 and cultured for 68-72 hours. […]

Assay [4] relates to lung cancer PDX model LU2505. As to the kind of experiment: Effectiveness in lung cancer LU2505 model (PDX model). The assay is classed as in vivo, BALB/c nude mice. The source says:
The active substance of test sample CBP-1018 is CB-20BK, which is obtained by mixing CB-20BK with auxiliary materials and then lyophilizing same.

Assay [5] has as its system lung cancer PDX model LU1206. As to the kind of experiment: Effectiveness in lung cancer LU1206 model (PDX model). The assay is classed as in vivo, BALB/c nude mice.
Experimental: BALB/c nude mice bore tumors subcutaneously and, when the tumor volume reached about 150 mm^3, were grouped into: low-dose, medium-dose and high-dose test sample groups, a small molecule MMAE control group, a targeting polypeptide 20BK-SM09 control group, and a blank control group (a total of 6 groups, and 8 mice per group); the mice were administered on day 1, day 8 and day 15 after the grouping; and the observation was continued for 14 days after the last administration.
[6] abbreviates: 10 mg/kg on day 1, 8, 15, euthanized on day 29.

The structures appear in SMILES notation. Numbered stars: 1 amine (or outer) side, 2 acyl side, 3 side chain; on linkers, the order of the positions; unused ones are H or OH. Bridge positions count the residues as written; N and C are the ends. Square brackets hold non-standard residues; d marks the D form. Peptide text beside a SMILES is read from it. I, II: the chains in the order shown. * marks the point of attachment. ξ: configuration not given here. Exatecan = CC[C@@]1(O)C(=O)OCc2c1cc1n(c2=O)Cc2c-1nc1cc(F)c(C)c3c1c2[C@@H](N*)CC3; Hexanoyl(6-succinimido-3yl) = O=C1CC([*:1])C(=O)N1CCCCCC(=O)[*:2]; Pteroyl = Nc1nc2ncc(CNc3ccc(C(=O)*)cc3)nc2c(=O)[nH]1; γGlu = O=C(O)[C@H](CCC(=O)[*:2])N[*:1]; NHCH2OCH2CO = O=C(COCN[*:1])[*:2]; ξV = CC(C)C(N)C(=O)O

In general, IC50 refers to the midpoint of a concentration-inhibition curve. Take `CC[C@@]1(O)C(=O)OCc2c1cc1n(c2=O)Cc2c-1nc1cc(F)c(C)c3c1c2[C@@H](NC(=O)CO)CC3` [Dxd0017, reference compound]: the figures for the IC50 in assay [1], in assay [2] and in assay [3] were 6.1 nM, 8 nM and 6.4 nM, respectively.
In the case of `NCCCC[C@H](CC(=O)[C@H](CC(=O)O)NC(=O)[C@H](CC(=O)O)NC(=O)Cc1ccc(CNC(=O)NCCCC[C@H](NC(=O)N[C@@H](CCC(=O)O)C(=O)O)C(=O)O)cc1)C(=O)N[C@@H](CS)C(=O)N[C@@H](CCCCNC(=O)CC[C@H](NC(=O)c1ccc(NCc2cnc3[nH]c(N)nc(=O)c3n2)cc1)C(=O)O)C(N)=O` [20BK-SM09], the “tumor growth inhibition effect (in words)” value in assay [4] (10 mg/kg) and in assay [5] (10 mg/kg) was “no obvious tumor growth inhibition effect” in each case. Besides, the Tumor volume in assay [4] (10 mg/kg on day 1, 8, 15, D22) came out at 2024.75 mm^3; in assay [5] (10 mg/kg on day 1, 8, 15), 1158.80 mm^3. The Tumor weight in assay [4] (10 mg/kg on day 1, 8, 15, D22) is on record as 1811.5 (D22) mg; in assay [5] (setting [6]) it was 914.36 mg. In addition, the “Tumor weight Inhibition ratio” value in assay [5] (setting [6]) is given as −6.80%.
On to `CCc1c2c(nc3ccc(O)cc13)-c1cc3c(c(=O)n1C2)COC(=O)[C@]3(O)CC` [SN-38, reference compound], for which the IC50 in assay [1] stood at 13.6 nM; in assay [2], 17.3 nM; in assay [3] it was 5.5 nM.
For the molecule `CC[C@@]1(O)C(=O)OCc2c1cc1n(c2=O)Cc2c-1nc1cc(F)c(C)c3c1c2[C@@H](NC(=O)COCNC(=O)CNC(=O)[C@H](Cc1ccccc1)NC(=O)CNC(=O)CNC(=O)CCCCCN1C(=O)CC(SC[C@H](NC(=O)CC[C@H](NC(=O)c2ccc(NCc4cnc5[nH]c(N)nc(=O)c5n4)cc2)C(=O)O)C(=O)N[C@@H](CCCCN)C(=O)N[C@@H](CCC(=O)O)C(=O)N[C@@H](Cc2ccccc2)C(=O)N[C@@H](CC(C)C)C(=O)N[C@@H](Cc2cnc[nH]2)C(=O)N2CCC[C@H]2C(=O)N[C@@H](CO)C(=O)N[C@@H](CCCCN)C(=O)NC(C(=O)N[C@@H](CC(=O)O)C(=O)N[C@@H](CC(C)C)C(=O)N2CCC[C@H]2C(=O)N[C@@H](CCCNC(=N)N)C(=O)O)C(C)C)C1=O)CC3` (stereo partly shown) [CR19425] (I: {Pteroyl-γGlu}-CKEFLHPSK[ξV]DLPR-OH / II: GGFG[NHCH2OCH2CO]-Exatecan; linker I:1-II:N via Hexanoyl(6-succinimido-3yl)), the IC50 in assay [1] turned out to be 951 nM; in assay [2] it was 1010 nM; in assay [3], 621 nM.
Consider `CCCC(=O)N[C@@H](Cc1ccccc1)C(=O)N[C@H]1CSSC[C@@H](C(=O)N[C@H](C(=O)N[C@@H](CCCCNC(=O)[C@H](CCC(=O)O)NC(=O)CCOCCOCCOCCOCCNC(=O)[C@H](CCC(=O)O)NC(=O)[C@H](CSC2CC(=O)N(CCCCCC(=O)NCC(=O)NCC(=O)N[C@@H](Cc3ccccc3)C(=O)NCC(=O)NCOCC(=O)N[C@H]3CCc4c(C)c(F)cc5nc6c(c3c45)Cn3c-6cc4c(c3=O)COC(=O)[C@]4(O)CC)C2=O)NC(=O)CC[C@H](NC(=O)c2ccc(NCc3cnc4[nH]c(N)nc(=O)c4n3)cc2)C(=O)O)C(N)=O)[C@@H](C)O)NC(=O)[C@H]([C@@H](C)O)NC(=O)[C@H](CCCCN)NC(=O)[C@H](Cc2c[nH]c3ccccc23)NC(=O)[C@H](Cc2ccc(O)cc2)NC1=O` (stereo partly shown) [CR19426], for which the IC50 worked out at 2300 nM in assay [1], 4390 nM in assay [2] and 1660 nM in assay [3].
